Laboratory results: patent US7504513B2, “Thiazolyl-benzimidazoles” (Hoffman-La Roche Inc., priority 2006, dated 2009)

Biological target: T1, GST-Plk1 (Homo sapiens, UniProt P53350)
T1 construct: Full-length, active GST-Plk1 was purified from Sf9 insect cells; made in house; host or cells: Sf9 insect cells
Assay: Biochemical Characterization Assay: HTRF kinase assay, GST-Plk1 phosphorylation of GST-p53
Settings: full-length active GST-Plk1, GST-p53 substrate, ATP, 37° C. for 35 minutes, HTRF signal
Procedure: Full-length, active GST-Plk1 was purified from Sf9 insect cells, and full-length GST-p53 was purified in E. coli. Anti-phospho p53 antibody was purchased from Cell Signaling Technology. Europium-conjugated anti-rabbit antibody was purchased from PerkinElmer Life and Analytical Sciences. APC-conjugated anti-GST antibody was purchased from Prozyme.
To two microliters of compound (0.6 nM-4 mM) in DMSO or plain DMSO for control wells, 38 microliters of 20 mM HEPES pH 7, 50 mM NaCl, 10 mM MgCl2, 0.5 mM TCEP, 0.1 mM sodium orthovanadate, 0.1 mg/ml BSA, and 0.05% Triton X-100 (Kinase Assay Buffer) were added. Eight microliters of the compound solution were added to a 384-well black microtiter plate, followed by six microliters of GST-p53 (17 ug/ml) and ATP (333 uM) in Kinase Assay Buffer. Six microliters of GST-Plk1 (3 ug/ml) in Kinase Assay Buffer were then added and the solution incubated at 37° C. for 35 minutes. Six microliters of solution containing 43 mM EDTA to stop the reaction and a 1:600 dilution of anti-phospho-p53 antibody in 20 mM HEPES pH 7, 50 mM NaCl, and 0.5 mg/ml BSA (Antibody Binding Buffer) were added and the solution incubated at 37° C. for 30 minutes. Six microliters of solution containing 9 nM europium-conjugated anti-rabbit antibody and 120 nM APC-conjugated anti-GST antibody in Antibody Binding Buffer were then added and the mixture incubated at room temperature for 1.5 hours. The HTRF signal was read on the Envision reader (PerkinElmer Life and Analytical Sciences).

T1 sequence (P53350 whole entry): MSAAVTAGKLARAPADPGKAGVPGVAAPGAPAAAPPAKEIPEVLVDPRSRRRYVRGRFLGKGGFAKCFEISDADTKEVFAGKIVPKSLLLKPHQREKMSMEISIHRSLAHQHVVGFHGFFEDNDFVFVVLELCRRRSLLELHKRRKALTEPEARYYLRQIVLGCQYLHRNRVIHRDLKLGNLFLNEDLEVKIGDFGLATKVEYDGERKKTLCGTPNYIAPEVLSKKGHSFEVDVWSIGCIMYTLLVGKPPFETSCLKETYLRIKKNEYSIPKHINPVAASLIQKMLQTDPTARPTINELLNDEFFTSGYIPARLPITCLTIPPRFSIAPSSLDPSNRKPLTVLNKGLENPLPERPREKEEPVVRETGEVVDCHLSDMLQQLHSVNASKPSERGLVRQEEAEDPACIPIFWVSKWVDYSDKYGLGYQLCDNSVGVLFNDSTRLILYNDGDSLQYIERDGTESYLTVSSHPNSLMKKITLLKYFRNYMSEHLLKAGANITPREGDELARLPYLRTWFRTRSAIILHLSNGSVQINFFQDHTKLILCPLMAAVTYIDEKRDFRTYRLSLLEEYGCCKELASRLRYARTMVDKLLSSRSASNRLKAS

Compound	IC50 [nM]
COc1ccc(-c2nc(-n3cnc4cc(OC)c(OC)cc43)sc2C(=O)O)cc1OC [Example 18, 2-(5,6-Dimethoxy-benzoimidazol-1-yl)-4-(3,4-dimethoxy-phenyl)-thiazole-5-carboxylic acid]	2390
Cc1cc2ncn(-c3nc(-c4ccccc4)c(C(=O)O)s3)c2cc1C [Example 5, 2-(5,6-Dimethylbenzoimidazol-1-yl)-4-phenylthiazole-5-carboxylic acid]	2490
COc1cc2ncn(-c3nc(-c4ccccc4O)c(C(=O)O)s3)c2cc1OC [Example 30, 2-(5,6-Dimethoxy-benzoimidazol-1-yl)-4-(2-hydroxy-phenyl)-thiazole-5-carboxylic acid]	275
COc1cc2ncn(-c3nc(-c4cccc5ccccc45)c(C(=O)O)s3)c2cc1OC [Example 32, 2-(5,6-Dimethoxy-benzoimidazol-1-yl)-4-naphthalen-1-yl-thiazole-5-carboxylic acid]	3180
COc1cccc(-c2nc(-n3cnc4cc(OC)c(OC)cc43)sc2C(=O)O)c1 [Example 20, 2-(5,6-Dimethoxy-benzoimidazol-1-yl)-4-(3-methoxy-phenyl)-thiazole-5-carboxylic acid]	127
COc1cc2ncn(-c3nc(-c4cccc(Cl)c4)c(C(=O)NNC(=O)c4cccc(C)c4)s3)c2cc1OC [Example 58, 3-Methyl-benzoic acid N′-[4-(3-chloro-phenyl)-2-(5,6-dimethoxy-benzoimidazol-1-yl)-thiazole-5-carbonyl]-hydrazide]	586
COc1cc2ncn(-c3nc(-c4ccc(F)c(F)c4)c(C(=O)O)s3)c2cc1OC [Example 47, 4-(3,4-Difluoro-phenyl)-2-(5,6-dimethoxy-benzoimidazol-1-yl)-thiazole-5-carboxylic acid]	542
O=C(O)c1sc(-n2cnc3cc(O)c(O)cc32)nc1-c1ccccc1 [Example 39, 2-(5,6-Dihydroxybenzoimidazol-1-yl)-4-phenyl-thiazole-5-carboxylic acid]	2020
COc1cc2ncn(-c3nc(-c4cccc(O)c4)c(C(=O)O)s3)c2cc1OC [Example 34, 2-(5,6-Dimethoxy-benzoimidazol-1-yl)-4-(3-hydroxy-phenyl)-thiazole-5-carboxylic acid]	211
C=Cc1cccc(-c2nc(-n3cnc4cc(OC)c(OC)cc43)sc2C(=O)O)c1 [Example 40, 2-(5,6-Dimethoxy-benzoimidazol-1-yl)-4-(3-vinyl-phenyl)-thiazole-5-carboxylic acid]	102
COc1cc2ncn(-c3nc(-c4cc(Cl)cc(Cl)c4)c(C(=O)O)s3)c2cc1OC [Example 41, 4-(3,5-Dichloro-phenyl)-2-(5,6-dimethoxy-benzoimidazol-1-yl)-thiazole-5-carboxylic acid]	66
COc1cc2ncn(-c3nc(-c4ccccc4)c(C(N)=O)s3)c2cc1OC [Example 6, 2-(5,6-Dimethoxy-benzoimidazol-1-yl)-4-phenyl-thiazole-5-carboxylic acid amide]	1380
2-(5-Hydroxy-benzoimidazol-1-yl)-4-phe-nyl-thiazole-5-car-boxylic acid; compoundwith 2-(6-hydroxy-benzoimidazol-1-yl)-4-phenyl-thiazole-5-carboxylic acid [Example 65]	388
2-(5-Methylbenzoimidazol-1-yl)-4-phenylthiazole-5-carboxylic acid and 2-(6-Methylbenzoimidazol-1-yl)-4-phenylthiazole-5-carboxylic acid [Example 4]	1550
COc1cc2ncn(-c3nc(-c4cccc(Cl)c4)c(C(=O)Nc4ccncn4)s3)c2cc1OC [Example 54, 4-(3-Chloro-phenyl)-2-(5,6-dimethoxy-benzoimidazol-1-yl)-thiazole-5-carboxylic acid pyrimidin-4-ylamide]	47
NC(=O)c1sc(-n2cnc3ccccc32)nc1-c1ccccc1 [Example 3, 2-Benzoimidazol-1-yl-4-phenyl-thiazole-5-carboxylic acid amide]	7360

Continued by falling IC50, values first:

IC50 [nM]	Compound
8870	COc1cc2ncn(-c3nc(-c4cccc(C(=O)N(C)C)c4)c(C(=O)O)s3)c2cc1OC [Example 52, 2-(5,6-Dimethoxy-benzoimidazol-1-yl)-4-(3-dimethylcarbamoyl-phenyl)-thiazole-5-carboxylic acid]
4410	COc1cc2ncn(-c3nc(-c4cccnc4)c(C(=O)O)s3)c2cc1OC [Example 33, 2-(5,6-Dimethoxy-benzoimidazol-1-yl)-4-pyridin-3-yl-thiazole-5-carboxylic acid]
2670	C=Cc1ccc(-c2nc(-n3cnc4cc(OC)c(OC)cc43)sc2C(=O)O)cc1 [Example 51, 2-(5,6-Dimethoxy-benzoimidazol-1-yl)-4-(4-vinyl-phenyl)-thiazole-5-carboxylic acid]
1290	2-(5-Chloro-6-fluoro-benzoimidazol-1-yl)-4-phenyl-thiazole-5-carboxylic acid and 2-(6-chloro-5-fluoro-benzoimidazol-1-yl)-4-phenyl-thiazole-5-carboxylic acid [Example 35]
1080	COc1cc2ncn(-c3nc(-c4cccc(CO)c4)c(C(=O)O)s3)c2cc1OC [Example 49, 2-(5,6-Dimethoxy-benzoimidazol-1-yl)-4-(3-hydroxymethyl-phenyl)-thiazole-5-carboxylic acid]
856	COc1ccc(-c2nc(-n3cnc4cc(OC)c(OC)cc43)sc2C(=O)O)cc1 [Example 28, 2-(5,6-Dimethoxy-benzoimidazol-1-yl)-4-(4-methoxy-phenyl)-thiazole-5-carboxylic acid]
772	O=C(O)c1sc(-n2cnc3ccccc32)nc1-c1ccccc1 [Example 2, 2-(Benzoimidazol-1-yl)-4-phenylthiazole-5-carboxylic acid]
657	COc1cc2ncn(-c3nc(-c4ccc(C)cc4)c(C(=O)O)s3)c2cc1OC [Example 26, 2-(5,6-Dimethoxy-benzoimidazol-1-yl)-4-p-tolyl-thiazole-5-carboxylic acid]
526	2-[5-(2-Methoxy-ethoxy)-benzo-imidazol-1-yl]-4-phenyl-thiazole-5-carboxylic acid;compound with 2-[6-(2-meth-oxy-ethoxy)-benzo-imidazol-1-yl]-4-phenyl-thiazole-5-carboxylic acid [Example 63]
344	COc1cc2ncn(-c3nc(-c4cccc(Cl)c4)c(C(=O)Nn4cnnc4)s3)c2cc1OC [Example 57, 4-(3-Chloro-phenyl)-2-(5,6-dimethoxy-benzoimidazol-1-yl)-thiazole-5-carboxylic acid [1,2,4]triazol-4-ylamide]
261	COc1ccc2c(c1)ncn2-c1nc(-c2ccccc2)c(C(=O)O)s1 [Example 62, 2-(5-Methoxy-benzoimidazol-1-yl)-4-phe-nyl-thiazole-5-car-boxylic acid]
250	COc1cccc(NC(=O)c2sc(-n3cnc4cc(OC)c(OC)cc43)nc2-c2cccc(Cl)c2)c1 [Example 55, 4-(3-Chloro-phenyl)-2-(5,6-dimethoxy-benzoimidazol-1-yl)-thiazole-5-carboxylic acid (3-methoxy-phenyl)-amide]
216	COc1cc2ncn(-c3nc(-c4ccc(Cl)c(Cl)c4)c(C(=O)O)s3)c2cc1OC [Example 23, 4-(3,4-Dichloro-phenyl)-2-(5,6-dimethoxy-benzoimidazol-1-yl)-thiazole-5-carboxylic acid]
